From US20070027181A1, “Benzylisoquinoline derivative- or bisbenzylisoquinoline derivative-containing psychotropic agent, analgesic and/or antiphlogistic, and health food” (EDUCATION CENTER OF TRADITIONAL, priority 2004, published 2007)

How the values were obtained:
Format in all cases: in vivo, Male ICR mice
[1] = tested on: mice; test: rotarod test (motor coordination); details: 5 mg/kg i.p., n=6, 15 minutes after administration, 8 rpm, three minutes
Description: (§1) In the following Examples, all extracts and drugs used were dissolved in physiological saline before use for i.p. administration and the dose was 0.1 ml of physiological saline per 10 g of mouse body weight in either case. All extracts and drugs were suspended in physiological saline containing 1% sodium carboxymethylcellulose before use for oral administration and the dose was 0.1 ml of 1% sodium carboxymethylcellulose-containing physiological saline suspension per 10 g of mouse body weight in either case. Male ICR mice (Japan SLC) having a body weight of 25 to 30 g were used in the tests below unless otherwise stated, and were fed in advance at a room temperature of 23±1° C. and a relative humidity of 55±5% in the environment of a cycle of 12-hour-light from 7 a.m. to 7 p.m. and 12-hour-dark from 7 p.m. to 7 a.m. for 3 to 5 days. The mice were allowed to have water and feed freely.
Tests were performed by using mice administered intraperitoneally with 25 mg/kg of neferine hydrochloride (treatment group 7-1, n=6), 25 mg/kg of liensinine hydrochloride (treatment group 7-2, n=6), and physiological saline (negative control group, n=6) as well as 5 mg/kg of diazepam (positive control group, n=6) and a rotarod equipment (Ugo Basile, Italy) and a locomotor activity monitoring system (NS-AS01, Neuroscience Inc.). […]

[2] = tested on: mice; test: acetic acid-induced writhing test
Description: as §1
An acetic acid-induced writhing test is a method wherein analgesic action of a compound is determined utilizing this. The number of this writhing is compared between a physiological saline-administered control group and a test drug-administered group, and suppression of the number of writhing by the test drug is investigated thereby assessing its analgesic action.
Seven to ten mice per group were used. Neferine hydrochloride was subcutaneously administered to mice at their back at a dose of 5 mg/kg, 10 mg/kg, 25 mg/kg, 50 mg/kg or 100 mg/kg and, after 15 minutes, a 0.6% by weight solution of acetic acid in water was intraperitoneally administered at 0.1 mL/10 g body weight. The number of writhing was counted every ten minutes for 30 minutes from immediately after acetic acid administration (0 to 10 min, 10 to 20 min, 20 to 30 min). In addition, the total number of writhing for 30 minutes from immediately after acetic acid administration was also obtained. Regarding the resulting measurements, a significant difference test was performed by a Dunnet multiple comparison test method.
According to the same manner as in acetic acid-induced writhing test-1 except that acetic acid was intraperitoneally administered 30 minutes after subcutaneous administration of neferine in the aforementioned acetic acid-induced writhing test-1, an acetic acid-induced writhing test was performed. However, the dose of neferine was only 50 mg/kg.
According to the same manner as in the acetic acid-induced writhing test-1 except that acetic acid was intraperitoneally administered 30 minutes after oral administration of neferine in the aforementioned acetic acid-induced writhing test-1, an acetic acid-induced writhing test was performed. However, five to six mice per group were used. The dose of neferine was 10 mg/kg and 50 mg/kg. Further, aspirin was used as a positive control drug. The dose of aspirin was 50 mg/kg.
According to the same manner as in acetic acid-induced writhing test-1 except that armepavine was used in place of neferine in the aforementioned acetic acid-induced writhing test-1, an acetic acid-induced writhing test was performed. However, the dose of armepavine was 5 mg/kg and 10 mg/kg.
According to the same manner as in acetic acid-induced writhing test-1 except that O-methylarmepavine was used in place of neferine in the aforementioned acetic acid-induced writhing test-1, an acetic acid-induced writhing test was performed. However, the dose of O-methylarmepavine was 5 mg/kg and 10 mg/kg.

[3] = tested on: mice; test: formalin pad test; details: 10 mg/kg i.p. 15 minutes before formalin
Description: as §1
A formalin pad test is a method in which, when formalin is subcutaneously administered to a pad of a mouse, the mouse causes licking, and analgesic action of a test drug is determined by utilizing this. Suppression of licking in a test drug-administered group was investigated relative to a physiological saline-administered control group, and analgestic action was evaluated.
Six mice per group were used. Neferine hydrochloride was intraperitoneally administered at a dose of 25 mg/kg, 50 mg/kg or 100 mg/kg and, after fifteen minutes, 20 μl of a 0.2% by weight formalin aqueous solution was subcutaneously administered to a right hind paw pad. After formalin administration, licking was regarded as a provisional pain reaction, and a licking sustaining time in a first phase from immediately after formalin administration to five minutes after formalin administration and in a second phase from 15 minutes to 30 minutes after formalin administration was measured. Regarding the resulting measurements, a significant difference test was performed by a Dunnet multiple comparison test method.
According to the same manner as in Example 13 except that 10 mg/kg of O-methylarmepavine was intraperitoneally administered in place of neferine, a formalin pad test was performed.

[4] = tested on: mice; test: histamine-induced paw edema test; details: 10 mg/kg i.p. 15 minutes before histamine 10 μg; 12 minutes after histamine
Description: as §1
Six mice per group were used. […] The thickness of the right hind paw was measured immediately before histamine administration and 12 minutes after histamine administration. The thickness immediately before administration was subtracted from the thickness of the paw after histamine administration, and this was adopted as a thickness of paw edema. As apparent from TABLE 18, paw edema due to histamine was suppressed by neferine. […]

[5] = tested on: mice; test: locomotor activity (ultromotivity) test, evaluation of sedative action
Description: as §1
Twenty five mice were grouped into five groups each having five mice, to which 5 mg/kg of N-methylcoclaurine hydrochloride (treatment group 1-1: i.p. administration), 50 mg/kg of neferine hydrochloride (treatment group 1-2: oral administration, and treatment group 1-3: i.p. administration), 50 mg/kg of liensinine hydrochloride (treatment group 1-4: oral administration), or physiological saline (negative control group 1-1: i.p. administration) was administered. The ultromotivity of the mice was analyzed by using a locomotor activity monitoring system (NS-AS01, Neuroscience Inc.). The ultromotivity measurements were performed at an interval of 5 minutes for 60 minutes, and the ultromotivity was judged from the count at each measuring time.
Similar tests were conducted by i.p. administration of 25 mg/kg of N-norarmepavine (treatment group 1-5, n=6), 25 mg/kg of O,O-dimethylcoclaurine (treatment group 1-6, n=5), 10 mg and 25 mg/kg of armepavine (respectively, treatment group 1-7, n=6, and treatment group 1-8, n=6), 10 mg and 25 mg/kg of O-methylarmepavine (respectively, treatment group 1-9, n=6, and treatment group 1-10, n=6), and physiological saline (negative control group 1-2, n=5). The ultromotivity measurements were performed at an interval of five minutes for 60 minutes, and the ultromotivity was subjected to a significant difference test (Tukey's method) by using the counts at respective measuring times.
Tests were performed by using mice administered intraperitoneally with 25 mg/kg of neferine hydrochloride (treatment group 7-1, n=6), 25 mg/kg of liensinine hydrochloride (treatment group 7-2, n=6), and physiological saline (negative control group, n=6) as well as 5 mg/kg of diazepam (positive control group, n=6) and a rotarod equipment (Ugo Basile, Italy) and a locomotor activity monitoring system (NS-AS01, Neuroscience Inc.). The rotarod test was performed by placing a mouse on a rod having a diameter of 4 cm rotating at a speed of 8 rpm 15 minutes after drug administration and observing whether the mouse can stay on the rod without falling for three minutes. The individuals that had fallen from the rotating rod in the period of 3 minutes were judged that they are with motor coordination disorder. […] In addition, the ultromotivity measurements were performed at an interval of five minutes for 60 minutes, and the ultromotivity results were subjected to a significant difference test (Tukey's method) by using the counts at respective measuring times.

[6] = 5 mg/kg s.c. 15 minutes before acetic acid
[7] = 10 mg/kg s.c. 15 minutes before acetic acid
[8] = 50 mg/kg oral 30 minutes before acetic acid

## CN1C(=O)CN=C(c2ccccc2)c2cc(Cl)ccc21 [diazepam]
[1]
  Number of individuals fallen: 5

## COc1ccc(C[C@@H]2c3cc(OC)c(OC)cc3CCN2C)cc1 [O-methylarmepavine]
[2]; [6]
  Number of writhing 0-10 min.: 11.6 ± 1.41
  Number of writhing 0-30 min.: 30.2 ± 1.90
  Number of writhing 10-20 min.: 11.2 ± 2.25
  Number of writhing 20-30 min.: 7.4 ± 1.52
[2]; [7]
  Number of writhing 0-10 min.: 5.9 ± 1.73
  Number of writhing 0-30 min.: 13.3 ± 1.69
  Number of writhing 10-20 min.: 4.3 ± 1.19
  Number of writhing 20-30 min.: 3.1 ± 0.58
[3]; 0 to 5 minutes
  Licking sustaining time (second) First phase: 70.9 ± 11.24 s
[3]; 15 to 30 minutes
  Licking sustaining time (second) Second phase: 126.9 ± 18.4 s
[4]
  Thickness of paw edema (mm): 0.37 ± 0.06 mm

## COc1cc2c(cc1OC)C(Cc1ccc(O)cc1)N(C)CC2 (centres unmarked) [armepavine]
[2]; [6]
  Number of writhing 0-10 min.: 19.0 ± 3.21
  Number of writhing 0-30 min.: 41.7 ± 5.24
  Number of writhing 10-20 min.: 14.7 ± 1.92
  Number of writhing 20-30 min.: 9.4 ± 1.81
[2]; [7]
  Number of writhing 0-10 min.: 8.6 ± 1.41
  Number of writhing 0-30 min.: 24.6 ± 4.23
  Number of writhing 10-20 min.: 10.7 ± 2.24
  Number of writhing 20-30 min.: 5.3 ± 1.39

## COc1cc2c(cc1O)[C@@H](Cc1ccc(O)cc1)N(C)CC2 [N-methylcoclaurine]
[5]; 5 mg/kg i.p. versus 50 mg/kg of the bisbenzylisoquinolines
  sedative activity compared with neferine and liensinine: extremely higher activity
[5]; 5 mg/kg i.p.
  Ultromotivity (count) 30 minutes: 250 count
  Ultromotivity (count) 60 minutes: 250 count

## CC(=O)Oc1ccccc1C(=O)O [aspirin, reference compound]
[2]; [8]
  Number of writhing 0-10 min.: 10.8 ± 3.41
  Number of writhing 0-30 min.: 3.34 ± 5.35
  Number of writhing 10-20 min.: 15.2 ± 1.83
  Number of writhing 20-30 min.: 7.4 ± 1.23

## COc1cc2c(cc1OC)[C@@H](Cc1ccc(O)c(Oc3cc4c(cc3OC)CCN(C)[C@@H]4Cc3ccc(O)cc3)c1)N(C)CC2 [liensinine]
[5]; 50 mg/kg oral
  Ultromotivity (count) 30 minutes: 600 count
  Ultromotivity (count) 60 minutes: 800 count
